Source: patent US20260356810A1, “NOVEL PIPERAZINE-BASED SULFONAMIDES AND THEIR USE AS NEUROPROTECTIVE AND/OR NEURORESTORATIVE AGENTS” (GENECODE, priority 2022, published 2026)

Each compound was assayed against T1, GFRα1-RET (Homo sapiens, UniProt P56159) (assay: Luciferase assay: activation of Elk1 signaling in reporter-gene cells expressing GFRα1-RET (MG87 murine fibroblast stably transfected with PathDetect Elk-1, GFRα1, and RET)). Conditions: Table 4; MG87 murine fibroblasts with PathDetect Elk-1, GFRα1, RET; 6 concentrations, duplicate, two times independently; agonist/activator activity; read-out: Luciferase Assay EC50.
T1 construct: expressed in transfected cells; host or cells: MG87 murine fibroblast
Type: cell-based
Experimental: The purpose of this experiment was to evaluate the GFRα1-RET activity of the compounds 001-060 according to the invention.
The compounds were tested for their activating activity of Elk1 signaling using the previously developed reporter-gene-based system in cells expressing GFRα1-RET (MG87 murine fibroblast stably transfected with PathDetect Elk-1, GFRα1, and RET) disclosed in Sidorova, Y. A. et al.: “Persephin signaling through GFRα1: The potential for the treatment of Parkinson's disease.” Molecular and Cellular Neuroscience, July 2010, Vol. 44, pp. 223-232. DOI: 10.1016/j.mcn.2010.03.009. For EC50 determination, a dose-response test was performed using 6 concentrations of each tested compound. Dose-response curves were fitted using the sigmoidal dose-response (variable slope) analysis in GraphPad Prism program (Graph Pad Inc) and EC50 of agonist/activator activity was calculated. Dose-response experiments were all performed in duplicate, two times independently.
The compounds were tested for their activating activity of Elk1 signaling using the same materials and methods than for the compounds according to the invention (Example 2 herein, section “Materials and methods”).

T1 sequence (P56159 25-429 limits assumed): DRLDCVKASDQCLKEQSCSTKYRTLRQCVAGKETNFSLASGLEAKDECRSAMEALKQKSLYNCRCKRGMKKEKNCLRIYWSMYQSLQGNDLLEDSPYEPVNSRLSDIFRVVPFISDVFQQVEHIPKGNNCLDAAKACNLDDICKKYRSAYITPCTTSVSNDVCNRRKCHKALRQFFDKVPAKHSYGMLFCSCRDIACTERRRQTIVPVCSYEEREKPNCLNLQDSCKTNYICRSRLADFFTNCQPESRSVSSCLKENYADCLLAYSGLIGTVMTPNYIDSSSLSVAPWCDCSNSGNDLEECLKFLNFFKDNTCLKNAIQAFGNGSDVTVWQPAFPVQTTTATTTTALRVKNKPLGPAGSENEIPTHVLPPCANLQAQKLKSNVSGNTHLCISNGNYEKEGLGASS
T1 sequence (P07949 29-1114 partner): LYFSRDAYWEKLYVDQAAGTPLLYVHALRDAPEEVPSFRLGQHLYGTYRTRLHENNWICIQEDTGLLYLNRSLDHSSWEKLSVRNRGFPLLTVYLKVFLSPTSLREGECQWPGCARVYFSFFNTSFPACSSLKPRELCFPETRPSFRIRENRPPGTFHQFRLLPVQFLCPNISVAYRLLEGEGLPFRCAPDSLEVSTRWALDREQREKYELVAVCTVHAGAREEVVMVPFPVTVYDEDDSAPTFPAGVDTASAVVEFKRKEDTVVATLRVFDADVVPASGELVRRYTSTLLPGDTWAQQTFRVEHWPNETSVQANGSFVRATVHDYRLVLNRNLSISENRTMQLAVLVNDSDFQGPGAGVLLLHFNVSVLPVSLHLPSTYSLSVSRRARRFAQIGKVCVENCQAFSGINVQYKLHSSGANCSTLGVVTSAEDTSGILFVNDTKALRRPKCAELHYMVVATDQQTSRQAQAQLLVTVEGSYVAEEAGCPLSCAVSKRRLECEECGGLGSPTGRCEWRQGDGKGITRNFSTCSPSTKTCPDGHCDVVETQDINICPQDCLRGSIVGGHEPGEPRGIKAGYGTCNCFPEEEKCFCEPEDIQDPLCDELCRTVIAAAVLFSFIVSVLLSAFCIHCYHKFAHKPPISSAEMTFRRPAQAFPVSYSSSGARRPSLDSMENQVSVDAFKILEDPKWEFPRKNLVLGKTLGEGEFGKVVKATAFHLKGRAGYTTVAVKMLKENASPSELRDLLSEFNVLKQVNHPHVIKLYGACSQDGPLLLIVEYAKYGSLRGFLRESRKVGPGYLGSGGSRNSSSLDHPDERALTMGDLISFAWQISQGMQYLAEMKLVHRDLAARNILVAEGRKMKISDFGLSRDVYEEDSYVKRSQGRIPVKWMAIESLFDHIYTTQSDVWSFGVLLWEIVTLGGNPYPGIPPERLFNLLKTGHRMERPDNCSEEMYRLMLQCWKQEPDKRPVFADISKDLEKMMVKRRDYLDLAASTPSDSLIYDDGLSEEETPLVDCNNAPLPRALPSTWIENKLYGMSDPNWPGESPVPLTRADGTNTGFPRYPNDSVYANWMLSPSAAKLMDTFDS

**Q.** Which EC50 does the source give for `COc1ccc(S(=O)(=O)N(C)CC2CCC2)cc1N1CCN(C(=O)c2ccc(F)cc2Cl)CC1` [Compound 014, 3-[4-(2-chloro-4-fluoro-benzoyl)piperazin-1-yl]-N-(cyclobutylmethyl)-4-methoxy-N-methyl-benzenesulfonamide] here?
**A.** 5 to 10 µM

**Q.** `COc1ccc(S(=O)(=O)N2CCC(O)(Cc3ccccc3)CC2)cc1N1CCN(C(=O)c2ccc(F)cc2Cl)CC1` [Compound 012, [4-[5-[(4-benzyl-4-hydroxy-1-piperidyl)sulfonyl]-2-methoxy-phenyl]piperazin-1-yl]-(2-chloro-4-fluoro-phenyl)methanone] was tested. Which EC50 did it give?
**A.** 5 to 10 µM

**Q.** For `CN(CC1CC1)S(=O)(=O)c1cc(Cl)c(O)c(N2CCN(C(=O)c3ccc(F)cc3Cl)CC2)c1` [Compound 059, 3-chloro-5-[4-(2-chloro-4-fluoro-benzoyl)piperazin-1-yl]-N-(cyclopropylmethyl)-4-hydroxy-N-methyl-benzenesulfonamide], which EC50 is on record?
**A.** < 1 µM

**Q.** With `COc1ccc(S(=O)(=O)N2CCCC(OCc3ccccc3)C2)cc1N1CCN(C(=O)c2ccc(F)cc2Cl)CC1` (stereo not shown) [Compound 038, (2-chloro-4-fluoro-phenyl)-[4-[2-methoxy-5-[[3-benzyloxy-1-piperidyl]sulfonyl]phenyl]piperazin-1-yl]methanone] as the compound, how does the EC50 read?
**A.** 1 to 5 µM

**Q.** Which EC50 does the source give for `COc1ccc(S(=O)(=O)N2CCC(Cc3ccccc3)CC2)cc1N1CCN(C(=O)c2ccc(F)cc2C(F)F)CC1` [Compound 010, [4-[5-[(4-benzyl-1-piperidyl)sulfonyl]-2-methoxy-phenyl]piperazin-1-yl]-[2-(difluoromethyl)-4-fluoro-phenyl]methanone] here?
**A.** 1 to 5 µM

**Q.** With `CCCN(C)S(=O)(=O)c1ccc(OCCO)c(N2CCN(C(=O)c3ccc(F)cc3C(F)(F)F)CC2)c1` [Compound 049, 3-[4-[4-fluoro-2-(trifluoromethyl)benzoyl]piperazin-1-yl]-4-(2-hydroxyethoxy)-N-methyl-N-propyl-benzenesulfonamide] as the compound, how does the EC50 read?
**A.** 10 to 50 µM

**Q.** How did the EC50 turn out when `CCCN(C)S(=O)(=O)c1ccc(OCCOC)c(N2CCN(C(=O)c3ccc(F)cc3C(F)(F)F)CC2)c1` [Compound 046, 3-[4-[4-fluoro-2-(trifluoromethyl)benzoyl]piperazin-1-yl]-4-(2-methoxyethoxy)-N-methyl-N-propyl-benzenesulfonamide] was run?
**A.** 5 to 10 µM

**Q.** How did the EC50 turn out when `COc1ccc(S(=O)(=O)N2CCCC(c3ccccc3)C2)cc1N1CCN(C(=O)c2ccc(F)cc2Cl)CC1` (stereo not shown) [Compound 026, (2-chloro-4-fluoro-phenyl)-[4-[2-methoxy-5-[[3-phenyl-1-piperidyl]sulfonyl]phenyl]piperazin-1-yl]methanone] was run?
**A.** 1 to 5 µM

**Q.** How did the EC50 turn out when `COc1ccc(S(=O)(=O)N2CCC(=Cc3ccccc3)CC2)cc1N1CCN(C(=O)c2ccc(F)cc2Cl)CC1` [Compound 023, [4-[5-[(4-benzylidene-1-piperidyl)sulfonyl]-2-methoxy-phenyl]piperazin-1-yl]-(2-chloro-4-fluoro-phenyl)methanone] was run?
**A.** < 1 µM

**Q.** How did the EC50 turn out when `O=C(c1ccc(F)cc1Cl)N1CCN(c2cc(S(=O)(=O)N3CCC(F)CC3)cc(Cl)c2O)CC1` [Compound 057, (2-chloro-4-fluoro-phenyl)-[4-[3-chloro-5-[(4-fluoro-1-piperidyl)sulfonyl]-2-hydroxy-phenyl]piperazin-1-yl]methanone] was run?
**A.** 1 to 5 µM

**Q.** `CC(C)(C)NS(=O)(=O)c1cc(Cl)c(O)c(N2CCN(C(=O)c3ccc(F)cc3Cl)CC2)c1` [Compound 058, N-tert-butyl-3-chloro-5-[4-(2-chloro-4-fluoro-benzoyl)piperazin-1-yl]-4-hydroxy-benzenesulfonamide] was tested. Which EC50 did it give?
**A.** < 1 µM

**Q.** `COc1ccc(S(=O)(=O)N2CC3CCC2C3)cc1N1CCN(C(=O)c2ccc(F)cc2Cl)CC1` (stereo not shown) [Compound 036, (2-chloro-4-fluoro-phenyl)-[4-[2-methoxy-5-[[2-azabicyclo[2.2.1]heptan-2-yl]sulfonyl]phenyl]piperazin-1-yl]methanone] was tested. Which EC50 did it give?
**A.** 10 to 50 µM

**Q.** For `Cc1cc(S(=O)(=O)N2CCC(c3ccccc3)CC2)cc(N2CCN(C(=O)c3ccc(F)cc3Cl)CC2)c1O` [Compound 055, (2-chloro-4-fluoro-phenyl)-[4-[2-hydroxy-3-methyl-5-[(4-phenyl-1-piperidyl)sulfonyl]phenyl]piperazin-1-yl]methanone], which EC50 is on record?
**A.** < 1 µM

**Q.** How did the EC50 turn out when `COc1ccc(S(=O)(=O)N2CCCC(Cc3ccccc3)C2)cc1N1CCN(C(=O)c2ccc(F)cc2Cl)CC1` (stereo not shown) [Compound 027, (2-chloro-4-fluoro-phenyl)-[4-[2-methoxy-5-[[3-benzyl-1-piperidyl]sulfonyl]phenyl]piperazin-1-yl]methanone] was run?
**A.** 1 to 5 µM

**Q.** With `CCN(CC)S(=O)(=O)c1cccc(N2CCN(C(=O)c3ccc(F)cc3C(F)(F)F)CC2)c1` [Compound 041, N,N-diethyl-3-[4-[4-fluoro-2-(trifluoromethyl)benzoyl]piperazin-1-yl]benzenesulfonamide] as the compound, how does the EC50 read?
**A.** 10 to 50 µM

**Q.** Which EC50 does the source give for `COc1ccc(S(=O)(=O)N2CCC(Cc3ccccc3)CC2)cc1N1CCN(C(=O)c2ccccc2C(F)F)CC1` [Compound 007, [4-[5-[(4-benzyl-1-piperidyl)sulfonyl]-2-methoxy-phenyl]piperazin-1-yl]-[2-(difluoromethyl)phenyl]methanone] here?
**A.** 1 to 5 µM

**Q.** With `COc1ccc(S(=O)(=O)N(C)Cc2ccc(F)cc2)cc1N1CCN(C(=O)c2ccc(F)cc2Cl)CC1` [Compound 021, 3-[4-(2-chloro-4-fluoro-benzoyl)piperazin-1-yl]-N-[(4-fluorophenyl)methyl]-4-methoxy-N-methyl-benzenesulfonamide] as the compound, how does the EC50 read?
**A.** 5 to 10 µM

**Q.** How did the EC50 turn out when `COc1ccc(S(=O)(=O)N2CCN(CC(C)c3ccc(F)cc3)CC2)cc1N1CCN(C(=O)c2ccc(F)cc2Cl)CC1` (racemic) [Compound 054, (2-chloro-4-fluoro-phenyl)-[4-[2-methoxy-5-[4-[rac-(2R)-2-(4-fluorophenyl)propyl]piperazin-1-yl]sulfonyl-phenyl]piperazin-1-yl]methanone] was run?
**A.** < 1 µM

**Q.** How did the EC50 turn out when `COc1ccc(S(=O)(=O)N2CCC(Cc3ccccc3)CC2)cc1N1CCN(C(=O)c2ncc(F)cc2Cl)CC1` [Compound 008, [4-[5-[(4-benzyl-1-piperidyl)sulfonyl]-2-methoxy-phenyl]piperazin-1-yl]-(3-chloro-5-fluoro-2-pyridyl)methanone] was run?
**A.** 5 to 10 µM

**Q.** Which EC50 does the source give for `CCN(CC)S(=O)(=O)c1cnc(OC)c(N2CCN(C(=O)c3ccc(F)cc3C(F)(F)F)CC2)c1` [Compound 045, N,N-diethyl-5-[4-[4-fluoro-2-(trifluoromethyl)benzoyl]piperazin-1-yl]-6-methoxy-pyridine-3-sulfonamide] here?
**A.** 10 to 50 µM

**Q.** With `COc1ccc(S(=O)(=O)N2CCC(Cc3ccccc3)C2)cc1N1CCN(C(=O)c2ccc(F)cc2Cl)CC1` (stereo not shown) [Compound 029, (2-chloro-4-fluoro-phenyl)-[4-[2-methoxy-5-[3-benzylpyrrolidin-1-yl]sulfonyl-phenyl]piperazin-1-yl]methanone] as the compound, how does the EC50 read?
**A.** 5 to 10 µM

**Q.** For `COc1ccc(S(=O)(=O)N2CCN(Cc3ccccc3)CC2)cc1N1CCN(C(=O)c2ccc(F)cc2Cl)CC1` [Compound 013, [4-[5-(4-benzylpiperazin-1-yl)sulfonyl-2-methoxy-phenyl]piperazin-1-yl]-(2-chloro-4-fluoro-phenyl)methanone], which EC50 is on record?
**A.** 5 to 10 µM

**Q.** With `COc1ccc(S(=O)(=O)N(C)Cc2cccc(Cl)c2)cc1N1CCN(C(=O)c2ccc(F)cc2Cl)CC1` [Compound 020, 3-[4-(2-chloro-4-fluoro-benzoyl)piperazin-1-yl]-N-[(3-chlorophenyl)methyl]-4-methoxy-N-methyl-benzenesulfonamide] as the compound, how does the EC50 read?
**A.** 1 to 5 µM

**Q.** `COc1ccc(S(=O)(=O)N2CCN(CCc3ccc(Cl)cc3)CC2)cc1N1CCN(C(=O)c2ccc(F)cc2Cl)CC1` [Compound 051, (2-chloro-4-fluoro-phenyl)-[4-[5-[4-[2-(4-chlorophenyl)ethyl]piperazin-1-yl]sulfonyl-2-methoxy-phenyl]piperazin-1-yl]methanone] was tested. Which EC50 did it give?
**A.** 1 to 5 µM

**Q.** `COc1ccc(S(=O)(=O)N2CCC(c3ccccc3)CC2)cc1N1CCN(C(=O)c2ccc(F)cc2Cl)CC1` [Compound 025, (2-chloro-4-fluoro-phenyl)-[4-[2-methoxy-5-[(4-phenyl-1-piperidyl)sulfonyl]phenyl]piperazin-1-yl]methanone] was tested. Which EC50 did it give?
**A.** < 1 µM

**Q.** With `COc1ccc(S(=O)(=O)NC2C3CC4CC(C3)CC2C4)cc1N1CCN(C(=O)c2ccc(F)cc2Cl)CC1` (stereo not shown) [Compound 034, N-(2-adamantyl)-3-[4-(2-chloro-4-fluoro-benzoyl)piperazin-1-yl]-4-methoxy-benzenesulfonamide] as the compound, how does the EC50 read?
**A.** 5 to 10 µM

**Q.** For `CCCN(C)S(=O)(=O)c1ccc(OC)c(N2CCN(C(=O)c3ccc(F)cc3Cl)CC2)c1` [Compound 030, 3-[4-(2-chloro-4-fluoro-benzoyl)piperazin-1-yl]-4-methoxy-N-methyl-N-propyl-benzenesulfonamide], which EC50 is on record?
**A.** 1 to 5 µM

Same assay, conditions: Table 6, comparison with comparative compounds; values for 001, 009, 010 reported from Table 4; MG87 GFRα1-RET cells; read-out: Luciferase Assay EC50

**Q.** With `COc1ccc(S(=O)(=O)N2CCC(Cc3ccccc3)CC2)cc1N1CCN(C(=O)c2ccc(F)cc2C(F)F)CC1` [Compound 010, [4-[5-[(4-benzyl-1-piperidyl)sulfonyl]-2-methoxy-phenyl]piperazin-1-yl]-[2-(difluoromethyl)-4-fluoro-phenyl]methanone] as the compound, how does the EC50 read?
**A.** 1 to 5 µM

**Q.** With `COc1ccc(S(=O)(=O)N2CCC(Cc3ccccc3)CC2)cc1N1CCN(C(=O)c2cc(F)ccc2C(F)(F)F)CC1` [Compound C01, (4-(5-((4-benzylpiperidin-1-yl)sulfonyl)-2-methoxyphenyl)piperazin-1-yl)(5-fluoro-2-(trifluoromethyl)phenyl)methanone, reference compound] as the compound, how does the EC50 read?
**A.** > 50 µM

Same assay, conditions: text statement on Table 6 results, GFRα1-RET luciferase assay; read-out: EC50

**Q.** For `COc1ccc(S(=O)(=O)N2CCC(Cc3ccccc3)CC2)cc1N1CCN(C(=O)c2ccc(F)cc2C(F)F)CC1` [Compound 010, [4-[5-[(4-benzyl-1-piperidyl)sulfonyl]-2-methoxy-phenyl]piperazin-1-yl]-[2-(difluoromethyl)-4-fluoro-phenyl]methanone], which EC50 is on record?
**A.** < 10 µM

**Q.** For `COc1ccc(S(=O)(=O)N2CCC(Cc3ccccc3)CC2)cc1N1CCN(C(=O)c2cc(F)ccc2C(F)(F)F)CC1` [Compound C01, (4-(5-((4-benzylpiperidin-1-yl)sulfonyl)-2-methoxyphenyl)piperazin-1-yl)(5-fluoro-2-(trifluoromethyl)phenyl)methanone, reference compound], which EC50 is on record?
**A.** > 50 µM
